Source: PMC10780244, “Antileishmanial Effect of 1,5- and 1,8-Substituted Fused Naphthyridines” (Molecules, 2023)

Assays:
[1] = Drug tolerance in murine intestinal organoids (alamarBlue); type: cell-based, mouse; settings: Balb/c, mouse, murine intestinal organoids, 72 h exposure
Procedure: (§1) Amastigotes obtained from mouse bone marrow cells were used to perform a first screening with the complete series of fused 1,5- and 1,8-naphthyridines. […] The toxicity of these selected compounds was assessed in non-infected splenic cells and the cytotoxic concentration (CC50) value obtained was used to calculate the selective index (SI). The oral tolerability of these same compounds was tested by calculating the viability of murine intestinal organoids exposed to two concentrations (50 and 25 µM).
Preparation and maintenance of murine intestinal organoids cultures were performed following the protocols published by Stemcell Technologies™ (https://www.stemcell.com/intestinal-epithelial-organoid-culture-with-intesticult-organoid-growth-medium-mouse-lp.html#protocols, accessed on 14 December 2023) with some modifications. Briefly, a section of small intestine from a Balb/c mouse was extracted and washed with ice-cold PBS. This section was cut into pieces around 2 mm each, washed 15–20 times with ice-cold PBS and incubated with Gentle Cell Dissociation Reagent (Stemcell Technologies™, Vancouver, BC, Canada) for 20 min. Then, the pieces were resuspended in ice-cold PBS with 0.1% BSA and left to settle at the bottom of the tube. The supernatant was collected and filtered through a 70 µm strainer. This process was repeated a total of four times obtaining different fractions. Cells from these fractions were centrifugated at 300× g for 5 min at 4 °C, washed with ice-cold PBS + 0.1% BSA and resuspended on 10 mL of ice-cold DMEM/F12 supplemented with glutamine and HEPES 15 mM (Gibco, Thermo Fisher Scientific, Waltham, MA, USA). After the evaluation under a microscope, the fraction with the highest crypt number but the lowest detritus presence was chosen. This fraction was centrifugated at 200× g for 5 min at 4 °C and the pellet was resuspended in a 1:1 mix of Geltrex GFR LDEV-free (Gibco, Fisher Scientific, Waltham, MA, USA) and IntestiCult™ Organoid Grow Medium Mouse (Stemcell Technologies™, Vancouver, BC, Canada). Fifty microliters of the suspension were pipetted into the middle of each well of a pre-heated 24-well plate and incubated at 37 °C for 10 min to allow polymerization of the matrix. In the end, 500 µL of IntestiCult™ Organoid Grow Medium was added to each well. The plates were incubated at 37 °C and 5% CO2, changing the culture medium every 48 h. Organoids were split 1 into 4 plates after 7 days.
Drug tolerance assays using murine intestinal organoids were performed in 384-well plates, following a protocol based on previous works and introducing several modifications. Briefly, organoids were prepared discarding the culture medium and adding 800 µL of Gentle Cell Dissociation Reagent (Stemcell Technologies™, Vancouver, BC, Canada) directly on top of matrix domes. After 1 min incubation at room temperature, the matrix was broken by pipetting, and the content of the wells was retrieved. The suspension was incubated at room temperature for 10 min on a rocking platform at 20 rpm, and centrifugated at 300× g for 5 min at 4 °C. The pellet was resuspended in 10 mL of ice-cold DMEM/F12 (Gibco, Fisher Scientific, Waltham, MA, USA) supplemented with glutamine and HEPES 15 mM and centrifugated again at 200× g for 5 min at 4 °C. Cells were resuspended in a 1:1 mix of Geltrex GFR LDEV-free and IntestiCult™ Organoid Grow Medium Mouse (Stemcell Technologies™, Vancouver, Canada). The final volume of the mix was calculated to achieve a 4-fold dilution in the final plate compared to the original plate. The mix was distributed in a 384-well plate (8 µL/well) which was incubated at 37 °C for 10 min. After that, 32 µL of IntestiCult™ Organoid Grow Medium Mouse (Stemcell Technologies™, Vancouver, Canada) were added to each well. The plate was incubated at 37 °C and 5% CO2 and after 4 days, mature organoids were exposed to drugs, alone or combined. For positive control, hydrogen peroxide at the final concentration of 0.15 % v/v was used. […]

[2] = tested on: intramacrophagic iRFP-L. infantum amastigotes from murine spleens; assay: Ex vivo intramacrophagic amastigote viability assay (iRFP fluorescence); type: cell-based, Leishmania infantum; settings: for EC50: Leishmania infantum, ex vivo murine splenic explants, 72 h, read-out: Intracellular Amastigotes EC50; for SI: ratio CC50 (splenic macrophages) / EC50 (intramacrophagic amastigotes); for antileishmanial activity against Leishmania amastigotes (in words): summary in discussion
Procedure: The 1,5- and 1,8-fused naphthyridine derivatives were evaluated as antileishmanial agents in assays using two forms of L. infantum amastigotes: axenic amastigotes recovered from bone marrow cells of infected BALB/c mice and intramacrophagic amastigotes obtained from splenic explants of the same subjects. The L. infantum strain used is a genetically modified strain previously engineered by our group to constitutively express the infrared protein iRFP from Rhodopseudomonas palustris bacteriophytochrome (iRFP L. infantum). This strain allows monitoring the viability of both forms of the parasite by quantifying the fluorescence emitted at 700 nm by the iRFP protein produced by living amastigotes.
as §1
Intramacrophagic amastigotes were obtained by cutting spleens into small pieces that were incubated for 25 min with 0.5 mL of collagenase D (2 mg/mL) (Merck, Darmstadt, Germany) dissolved in 4.5 mL buffer (10 mM HEPES, pH 7.4, 150 mM NaCl, 5 mM KCl, 1 mM MgCl2 and 1.8 mM CaCl2). The cell suspension was filtered through a 100 µm cell strainer. After erythrocyte lysis (150 mM NH4Cl, 1 mM KHCO3, 0.1 mM EDTA), splenocytes were centrifuged three times at 500× g for 7 min at 4 °C, with PBS washes between each centrifugation. The splenocyte suspension containing intramacrophagic amastigotes was resuspended in RPMI medium (Gibco, Fisher Scientific, Waltham, MA, USA) supplemented with 20% FBS, 1 mM sodium pyruvate, 24 mM NaHCO3, 2 mM L-glutamine, 1× RPMI vitamins, 25 mM HEPES and antibiotic cocktail.
For the ex vivo intramacrophagic amastigote assay, 40 μL of one-half or one-third serial dilutions of each diluted in supplemented RPMI medium, were added to black 384-well optical-bottom black plates containing 40 μL of murine splenocytes obtained as described above. Positive controls (containing 10 μM of AMB) and negative controls (containing 0.1% v/v DMSO) were included. The plates were incubated at 37 °C and 5% CO2, for a maximum period of 72 h and the assays were performed by triplicate.
The viability of axenic and intramacrophage amastigotes was calculated measuring the fluorescence emitted at 700 nm by the iRFP protein from live parasites and recorded by an Odyssey infrared imaging system (Li-Cor, NE, USA). The fluorescence emitted by the negative control wells was considered 100% viability, whereas the fluorescence emitted by the positive control wells, was adjusted to 0% viability.
Fluorescence emitted by intramacrophage amastigotes were plotted against the drug concentration using the nonlinear fit analysis provided by the Sigma Plot 10.1 statistical package to obtain EC50 values.

## O=C1Oc2ccccc2C2Nc3ccc(Br)nc3[C@@H](c3ccccc3)C12 (some centres unmarked) [Compound 6b]
[1]
  viability at 72 h, 25 µM: 72 ± 5%
  viability at 72 h, 50 µM: 60 ± 7%
[2]
  EC50: 12.9 ± 0.82 µM
  SI: 4.3

## COc1ccc2nc3c(c(-c4ccccc4)c2n1)c(=O)oc1ccccc13 [Compound 7c]
[1]
  viability at 72 h, 25 µM: 99 ± 4%
  viability at 72 h, 50 µM: 85 ± 13%
[2]
  EC50: 37 ± 2.87 µM
  SI: 2.6

## Cc1ccc(S(=O)(=O)N2CC3C(Nc4cccnc4[C@H]3c3ccccc3)c3ccccc32)cc1 (some centres unmarked) [Compound 8a]
[1]
  viability at 72 h, 25 µM: 93 ± 7%
  viability at 72 h, 50 µM: 89 ± 10%
[2]
  EC50: 5.3 ± 0.71 µM
  SI: 8.5

## COc1ccc2c(n1)[C@@H](c1ccccc1)C1CN(S(=O)(=O)c3ccc(C)cc3)c3ccccc3C1N2 (some centres unmarked) [Compound 8c]
[1]
  viability at 72 h, 25 µM: > 100%
  viability at 72 h, 50 µM: 100%
[2]
  EC50: 4.93 ± 0.35 µM

## Cc1ccc(S(=O)(=O)N2CC3C(Nc4ccc(Br)nc4[C@H]3c3ccccc3)c3ccccc32)cc1 (some centres unmarked) [Compound 8d]
[1]
  viability at 72 h, 25 µM: 4 ± 1%
  viability at 72 h, 50 µM: 3 ± 1%
[2]
  EC50: 34.4 ± 9.7 µM

## Fc1ccc2c(c1)C1Nc3ncccc3[C@@H](c3ccccc3)C1CO2 (some centres unmarked) [Compound 10b]
[1]
  viability at 72 h, 25 µM: 99 ± 8%
  viability at 72 h, 50 µM: 90%
[2]
  EC50: 7.57 ± 0.44 µM
  SI: 6.7

## c1ccc(-c2c3c(nc4ncccc24)-c2ccccc2OC3)cc1 [Compound 11a]
[1]
  viability at 72 h, 25 µM: 92 ± 1%
  viability at 72 h, 50 µM: 96 ± 1%
[2]
  EC50: 7.7 ± 0.29 µM

## O=c1oc2ccccc2c2nc3ncccc3c(-c3ccccc3)c12 [Compound 13a]
[1]
  viability at 72 h, 25 µM: 87 ± 15%
  viability at 72 h, 50 µM: 53 ± 5%
[2]
  EC50: 10.6 ± 1.21 µM
  SI: 3.3
  antileishmanial activity against Leishmania amastigotes (in words): significant antileishmanial activity

## O=c1oc2ccccc2c2nc3ncc(Br)cc3c(-c3ccccc3)c12 [Compound 13b]
[1]
  viability at 72 h, 25 µM: 90 ± 5%
  viability at 72 h, 50 µM: 61 ± 19%
[2]
  EC50: 7.53 ± 0.97 µM
  SI: >6.6

## Cc1ccc(S(=O)(=O)N2CC3C(Nc4ncccc4C3c3ccccc3)c3ccccc32)cc1 (centres unmarked) [Compound 14a]
[1]
  viability at 72 h, 25 µM: 90 ± 9%
  viability at 72 h, 50 µM: 56 ± 14%
[2]
  EC50: 9.34 ± 0.77 µM
  SI: 2.9
  antileishmanial activity against Leishmania amastigotes (in words): significant antileishmanial activity

## Cc1ccc(S(=O)(=O)N2Cc3c(nc4ncc(Br)cc4c3-c3ccccc3)-c3ccccc32)cc1 [Compound 15b]
[1]
  viability at 72 h, 25 µM: 58 ± 16%
  viability at 72 h, 50 µM: 13 ± 3%
[2]
  EC50: 6.16 ± 0.54 µM
  SI: 4.0
  antileishmanial activity against Leishmania amastigotes (in words): significant antileishmanial activity
